Like-named read-outs stand apart in the source and are kept apart here.
What was measured:
[1] = Phase 1 multiple ascending dose (MAD) pharmacokinetics with CSF collection in healthy volunteers; format: in vivo, human; details: for accumulation RCmax: day 8 vs day 1; for Kp at 4 h / concentration at 4 h / Tmax / Vd/F / Cmax: male, human, oral; for Kp at 4 h: CSF and plasma; for Tmax: Median, read-out: Tmax; for Vd/F: read-out: Vz/F; for Cmax: plasma total, geometric mean, read-out: Cmax
Method: (§1) Study design: A phase 1, randomized, double blind, placebo-controlled, single-center clinical study in 33 male healthy volunteers (HV) (19-54 years, 63.2-95.7 Kg) was conducted with leriglitazone HCl and divided in two parts: a single ascending dose (SAD) with three dose levels (30, 90 and 270 mg) in fasted conditions, followed with two dose levels (90 and 270 mg) in fed conditions; a multiple ascending dose (MAD) with a double-blind, parallel-design with two dose levels (135 and 270 mg) for 8 days and a separate cohort of subjects in an open-label parallel design with two dose levels (135 and 270 mg) including cerebrospinal fluid (CSF) collection on day 8. In the fasted conditions a fasting period of at least 4 hours was required before obtaining plasma samples. The food effect (FE) was assessed by comparing fasted with fed conditions (dosing after a high-fat breakfast per FDA definition with a calculated caloric content of 918 kcal). In the MAD part (fed) the medication was taken before a normal breakfast. Leriglitazone HCl was supplied by ChemConnection and an oral suspension of leriglitazone (20% w/v kleptose, 2% ethanol in 100 mM phosphate buffer pH=7.8) at 6 mg/ml was used in the study.
(§2) Blood, Urine and CSF sampling: In the SAD, blood samples were drawn at the following time points: pre-dose and 0.25, 0.5, 0.75, 1, 1.5, 2, 2.5, 3, 4, 5, 6, 8, 10, 12, 16, 24, 36, 48, 72, 96 and 120 hours post-dose. Urine was collected at pre-dose (within 12 hours prior to dosing) and over 0-6, 6-12, 12-24, 24-36, 36-48 hours post-dose collection intervals. In the MAD, blood samples were collected on day 1 at pre-dose and 0.25, 0.5, 0.75, 1, 1.5, 2, 2.5, 3, 4, 5, 6, 8, 10, 12, and 16 hours post-dose and at pre-dose and at 4 hours post-dose on day 2 to day 7, and on day 8 at pre-dose and 0.25, 0.5, 0.75, 1, 1.5, 2, 2.5, 3, 4, 5, 6, 8, 10, 12, 16, 24, 36, 48, 72, 96 and 120 hours post-dose. CSF were taken on day −1 and on day 8, at 4 hours post-dose.
(§3) Pharmacokinetic parameter calculation: PK parameters (Cmax, Tmax, t1/2, AUC0-t, CL/F, Vz/F, AUC0-t, RAUC, RCmax) were estimated using non-compartmental analysis (NCA) (Phoenix WinNonlin® Version 6.3).
(§4) Statistical analysis: Descriptive statistics for all relevant PK parameters: n, mean, minimum, median, maximum, geometric mean, and coefficient of variation (CV %); analysis of variance on Cmax and AUC to determine dose proportionality and food effect (FE).
The ratio of unbound leriglitazone concentration in brain to unbound concentration in plasma (Kpu,u; Cb,u/Cp,u) was calculated dividing the unbound CSF Cmax by the unbound plasma Cmax. Fractions unbound in plasma (fu,p) to obtain the unbound Cmax values were already reported. Rodriguez-Pascau, L. et al., Sci. Transl. Med. 13, eabc0555 (2021).

[2] = Phase 1 single ascending dose (SAD) pharmacokinetics in healthy volunteers; format: in vivo, human; details: for half-life / Tmax / Cmax / AUC(0-t) / AUC: male, human, plasma, oral; for Tmax: read-out: Tmax; for Cmax: plasma total, read-out: Cmax; for AUC(0-t) / AUC: geometric mean; for AUC: read-out: AUC
Method: as §1, §2, §3, §4

[3] = plasma, 135 mg, 135 mg MD Day 1, n = 8
[4] = plasma, 135 mg, 135 mg MD Day 8, n = 8
[5] = plasma, 270 mg, 270 mg MD Day 1, n = 8
[6] = plasma, 270 mg, 270 mg MD Day 8, n = 7

## CC(=O)c1ccc(CCOc2ccc(CC3SC(=O)NC3=O)cc2)nc1 (stereo not shown) [Compound M3, 5-[[4-[2-[5-acetylpyridin-2-yl]ethoxy]phenyl]methyl]-1,3-thiazolidine-2,4-dione]
[1]; 135 mg MD Day 1, n = 8, geometric mean (CV %)
  CL/F: 3.69 (29.4) L./h
[1]; 135 mg MD Day 8, n = 8, geometric mean (CV %)
  CL/F: 2.15 (27.6) L./h
[1]; 270 mg MD Day 1, n = 8, geometric mean (CV %)
  CL/F: 3.29 (26.4) L./h
[1]; 270 mg MD Day 8, 4 hours post-dose, total, geometric mean (CV %)
  Plasma C4h: :5673 (34.2) ng/mL
[1]; 270 mg MD Day 8, n = 7, geometric mean (CV %)
  CL/F: 2.13 (25.9) L./h
[1]; 270 mg vs 135 mg, day 8, 4 hours post-dose
  increase of CSF concentration on doubling the dose: 1.7 fold
[1]; MAD 135 mg
  accumulation RCmax: 1.57
[1]; MAD 270 mg dose
  accumulation RAUC: 1.63
[1]; MAD 270 mg
  accumulation RCmax: 1.69
[1]; judged from CSF to plasma concentrations
  brain penetration: limited
[1]; 135 mg MD Day 8, geometric mean (CV %), read-out: CSF/Plasma
  Kp at 4 h: 0.004
[1]; 270 mg MD Day 8, geometric mean (CV %), read-out: CSF/Plasma
  Kp at 4 h: 0.004
[1]; day 8, 4 hours post-dose, read-out: total concentrations in CSF as share of total plasma concentrations
  Kp at 4 h: 0.004
[1]; CSF, 135 mg MD Day 8, 4 hours post-dose, total, geometric mean (CV %), read-out: CSF C4h
  concentration at 4 h: 13 ng/mL
[1]; CSF, 270 mg MD Day 8, 4 hours post-dose, total, geometric mean (CV %), read-out: CSF C4h
  concentration at 4 h: 22 ng/mL
[1]; [3]
  Tmax: 3.5 h
  Cmax: 2470 ng/mL
[1]; plasma, 135 mg, 135 mg MD Day 1, n = 8, geometric mean (CV %)
  Vd/F: 111 L
[1]; [4]
  Tmax: 2.75 h
  Cmax: 4150 ng/mL
[1]; plasma, 135 mg, 135 mg MD Day 8, n = 8, geometric mean (CV %)
  Vd/F: 63.5 L
[1]; [5]
  Tmax: 3.5 h
  Cmax: 5360 ng/mL
[1]; plasma, 270 mg, 270 mg MD Day 1, n = 8, geometric mean (CV %)
  Vd/F: 103 L
[1]; [6]
  Tmax: 2.5 h
  Cmax: 8030 ng/mL
[1]; plasma, 270 mg, 270 mg MD Day 8, n = 7, geometric mean (CV %)
  Vd/F: 69.3 L
[1]; plasma, 135 mg MD Day 8, 4 hours post-dose, total, geometric mean (CV %), read-out: Plasma C4h
  concentration at 4 h: 3600 ng/mL
[2]; 48-hour collection period
  dose excreted in urine as free analyte: < 0.01%
  dose excreted in urine as the analyte, mostly in a conjugated state: 0.3%
[2]; 30 mg, M3 section, SAD 30 mg fasted, n = 6, geometric mean (CV %), read-out: t1/2 (converted)
  half-life: 1330 min
[2]; 30 mg, SAD 30 mg fasted, n = 6, Median
  Tmax: 0.63 h
[2]; 30 mg, SAD 30 mg fasted, n = 6, geometric mean (CV %)
  Cmax: 828 ng/mL
[2]; 90 mg, M3 section, SAD 90 mg fasted, n = 6, geometric mean (CV %), read-out: t1/2 (converted)
  half-life: 1390 min
[2]; 90 mg, M3 section, SAD 90 mg fed, n = 3, geometric mean (CV %), read-out: t1/2 (converted)
  half-life: 1540 min
[2]; 90 mg, SAD 90 mg fasted, n = 6, Median
  Tmax: 0.63 h
[2]; 90 mg, SAD 90 mg fasted, n = 6
  AUC(0-t): 59400 ng·h/mL
  AUC: 61800 ng·h/mL
[2]; 90 mg, SAD 90 mg fasted, n = 6, geometric mean (CV %)
  Cmax: 2550 ng/mL
[2]; 90 mg, SAD 90 mg fed, n = 3, Median
  Tmax: 5 h
[2]; 90 mg, SAD 90 mg fed, n = 3
  AUC(0-t): 59900 ng·h/mL
  AUC: 62200 ng·h/mL
[2]; 90 mg, SAD 90 mg fed, n = 3, geometric mean (CV %)
  Cmax: 1980 ng/mL
[2]; 270 mg, M3 section, SAD 270 mg fasted, n = 5, geometric mean (CV %), read-out: t1/2 (converted)
  half-life: 1300 min
[2]; 270 mg, M3 section, SAD 270 mg fed, n = 5, geometric mean (CV %), read-out: t1/2 (converted)
  half-life: 1360 min
[2]; 270 mg, SAD 270 mg fasted, n = 5, Median
  Tmax: 1.5 h
[2]; 270 mg, SAD 270 mg fed, n = 5, Median
  Tmax: 4 h
[2]; 270 mg, SAD 270 mg fed, n = 5
  AUC(0-t): 155000 ng·h/mL
  AUC: 159000 ng·h/mL
[2]; 270 mg, SAD 270 mg fed, n = 5, geometric mean (CV %)
  Cmax: 5320 ng/mL
[2]; 270 mg, SAD fed conditions, 90 and 270 mg
  Tmax: 3 to 6 h
[2]; SAD, read-out: Half-lives
  half-life: 1320 to 1380 min

From patent US20260207570A1, “OPTIMIZED DOSING OF LERIGLITAZONE” (MINORYX THERAPEUTICS S.L., priority 2022, published 2026)
